The values below come from patent publication US12150925B2, “Buthionine sulfoximine and a metallodrug for the treatment of cancer, HIV or a rheumatic disease” (Istituto Superiore di Sanità, priority 2017, dated 2024).

One series deals with cellular GSH. The conditions noted are these: 1.5 g/m^2 BSO at 12 hour intervals for six doses, alone or with 15 mg/m^2 melphalan; cited from earlier work.
In series [1] the test system is murine mammary carcinoma cell line. As to conditions: auranofin/submicromolar BSO combination; cited from earlier work.
For series [2] the following is noted: rats; cited from earlier work.
Another series deals with activated CD4^+ T-cells. The series can be described thus: Viability of activated primary CD4+ T-cells (MTT assay, FIG. 1). In kind it is cell-based. The protocol:
FIG. 1 is a graph showing the viability of activated primary CD4^+ T-cells treated with different concentrations of auranofin and buthionine sulfoximine (BSO), measured with the MTT assay. The cells were pre-incubated with the drugs for 24 hours and then activated with phytohemagglutinin (PHA) and assayed for viability 72 hours post activation (A) or the cells were activated with αCD3-αCD28 beads and then treated for 48 h with different combinations of auranofin and BSO (B). In (A), the effects of chloroquine are shown as a matter of comparison with a drug adopted in the clinic to limit immune hyperactivation. All concentrations are expressed in μM. In-vitro activity on activated CD4^+ T-cells and leukemia/lymphoma Methods. Resting CD4^+ T-cells, cultured T-cell leukemic Jurkat cells and Sup-T1 cells were left untreated or incubated for 24-72 hours with various concentrations of auranofin and/or buthionine sulfoximine (BSO), or chloroquine (only CD4^+ T-cells) or cisplatin (only Jurkat and Supt-T1 cells) CD4^+ T-cells were then activated by adding phytohemagglutinin (2 μg/mL). Alternatively, CD4^+ T-cells were first activated with anti-CD3/anti-CD28 beads and, after 72 hours, were left untreated or were incubated with auranofin and/or buthionine sulfoximine (BSO), or chloroquine. Cell viability was determined 24-72 hours post-activation with an MTT assay (CellTiter 96@ Non-Radioactive Cell Proliferation Assay) or MTS assay (CellTiter 960 AQueous One Solution Cell Proliferation Assay System; Promega). For the assay, 300×10^5 cells were re-suspended in 100 μL of medium and transferred to a 96-well plate. Cells were then incubated with 20 μL of a substrate solution (One Solution Reagent) for 3-4 hours in a CO2 (5%) incubator at 37° C. For the MTT assay, 100 μL of a Solubilization/Stop Solution were used to stop the reaction. Medium-only containing wells were included to serve as a blank control. Absorbance levels were recorded at 490 nm (MTS) or 570 nm (MTT) and, after subtraction of the blank, absorbance values were expressed as percentage of controls. Results. The results from the new dosage combinations were compared to the untreated cells as well as the cells treated with single drugs or “classical” dosages, in a multiple comparison analysis. Thus, the statistical significances shown are also significant compared to the untreated cells.

The conditions of series [3]: BSO 500 mg/kg intraperitoneally; cisplatin 6 or 9 mg/kg; cited from earlier work.
The conditions of series [4]: 5 mmol/kg (equivalent to 111.5 mg/kg) BSO 12 hours before the chemotherapeutic agent; cited from earlier work.
For the next series, the system named is MKN-45 cells. As to conditions: BSO 5, 10 and 25 mM; cisplatin 0.01-1 μg/ml; cited from earlier work.
The next series deals with Jurkat T-cells. As to the kind of experiment: Viability of Jurkat T-cells (MTT assay, FIG. 4). The series is classed as cell-based. On the procedure: FIG. 4 is a graph showing the viability of Jurkat T-cells treated with different concentrations of cisplatin, auranofin and/or buthionine sulfoximine (BSO). Viability was measured 48 hours after treatment with the drugs at the indicated concentrations with the MTT assay. Absorbance values were normalized over untreated controls and expressed as percentage. Concentrations are expressed in μM. Data are expressed as mean±SEM and were. Asterisks show the significant differences [*q<0.05; *q<0.01; q is the P value corrected for multiple comparisons by controlling the False Discovery Rate (threshold for significance=q=0.05)]. NS: non-significant. The synergistic index (SI) is expressed where significant differences exist in comparison with the single drug treatments.
In-vitro activity on activated CD4^+ T-cells and leukemia/lymphoma Methods. Resting CD4^+ T-cells, cultured T-cell leukemic Jurkat cells and Sup-T1 cells were left untreated or incubated for 24-72 hours with various concentrations of auranofin and/or buthionine sulfoximine (BSO), or chloroquine (only CD4^+ T-cells) or cisplatin (only Jurkat and Supt-T1 cells) CD4^+ T-cells were then activated by adding phytohemagglutinin (2 μg/mL). Alternatively, CD4^+ T-cells were first activated with anti-CD3/anti-CD28 beads and, after 72 hours, were left untreated or were incubated with auranofin and/or buthionine sulfoximine (BSO), or chloroquine. Cell viability was determined 24-72 hours post-activation with an MTT assay (CellTiter 96@ Non-Radioactive Cell Proliferation Assay) or MTS assay (CellTiter 960 AQueous One Solution Cell Proliferation Assay System; Promega). For the assay, 300×10^5 cells were re-suspended in 100 μL of medium and transferred to a 96-well plate. Cells were then incubated with 20 μL of a substrate solution (One Solution Reagent) for 3-4 hours in a CO2 (5%) incubator at 37° C. For the MTT assay, 100 μL of a Solubilization/Stop Solution were used to stop the reaction. Medium-only containing wells were included to serve as a blank control. Absorbance levels were recorded at 490 nm (MTS) or 570 nm (MTT) and, after subtraction of the blank, absorbance values were expressed as percentage of controls.
Results. The results from the new dosage combinations were compared to the untreated cells as well as the cells treated with single drugs or “classical” dosages, in a multiple comparison analysis. Thus, the statistical significances shown are also significant compared to the untreated cells.
In general terms: Tetrazolium dyes change colour on reduction, which living cells bring about.

“Also recorded” adds a separate entry of the source.

With `CCCCS(=N)(=O)CCC(N)C(=O)O` (centres unmarked) [BSO, buthionine sulfoximine], in the series with cellular GSH, the “cellular GSH” value is on record as “Marked depletion”. In addition, in series [1], the directly cytotoxic/anticancer effect result was “not able to detect”. For the same molecule, the “effect on nephrotoxicity of cisplatin” value in series [2] is recorded as “reduce the nephrotoxicity”. For the same molecule, in the series on activated CD4^+ T-cells (BSO 2 μM with auranofin), the “effect on viability compared with clinically achievable concentrations of Chloroquine” value is recorded as “superior” and the “limitation of cell viability compared with classically-described BSO concentration (250 μM)” value is reported as “similar”. Further, in the series on activated CD4^+ T-cells (BSO as low as 2 μM in combination with auranofin, pre-incubated (FIG. 1A) or treated concomitantly to activation (FIG. 1B)), the “effect with auranofin in limiting the viability of activated CD4^+ T-cells” value was “synergistic effect”. Moreover, the “effects of BSO on viability at submicromolar concentrations” value in the series on activated CD4^+ T-cells (with auranofin, cells activated with αCD3-αCD28 beads, then treated 48 h (FIG. 1B)) is listed as “still present”. Moreover, in series [3], the “effect of BSO pre-treatment on antitumor effects of cisplatin” value is recorded as “enhanced”. Also, the “effect on anti-cancer effects of cyclophosphamide, cisplatin or bleomycin” value in series [4] is listed as “increased the anti-cancer effects”. In addition, the “effect of BSO pre-treatment on antitumor activity of cisplatin” value with MKN-45 cells is on record as “increased the antitumor activity of cisplatin”. Further, in the series on Jurkat T-cells (BSO (submicromolar) with cisplatin (10 μM), 48 h (FIG. 4)), the “synergism of BSO and cisplatin” value is reported as “Significant synergism; also recorded: true synergism”. Also, in the series with Jurkat T-cells (BSO with auranofin and cisplatin (FIGS. 4 and 5)), the “effect of auranofin and low concentrations of BSO on the anti-neoplastic effect of cisplatin” value is “increase the anti-neoplastic effect of cisplatin”. For the same molecule, the “effect of BSO on susceptibility to cisplatin” value in the series with Jurkat T-cells (FIG. 4) is given as “chemosensitizing effect”. Moreover, the “inhibition of cellular proliferation compared with BSO 250 μM” value in the series with Jurkat T-cells (submicromolar BSO with cisplatin 10 μM) is given as “no statistical difference”.
